Assay results published in ChEMBL document CHEMBL4184276, “Curcumin inspired 2-chloro/phenoxy quinoline analogues: Synthesis and biological evaluation as potential anticancer agents” (Bioorg Med Chem Lett, 2018).

Key:
[1] = system: DU-145; assay: Cytotoxicity against human DU145 cells assessed as reduction in cell viability after 48 hrs by MTT assay; type: functional, cell-based; conditions: DU-145, 48 h
[2] = system: PC-3; assay: Cytotoxicity against human PC3 cells assessed as reduction in cell viability after 48 hrs by MTT assay; type: functional, cell-based; conditions: PC-3, 48 h
[3] = system: HeLa; assay: Cytotoxicity against human HeLa cells assessed as reduction in cell viability after 48 hrs by MTT assay; type: functional, cell-based
[4] = system: 4T1; assay: Cytotoxicity against mouse 4T1 cells assessed as reduction in cell viability after 48 hrs by MTT assay; type: functional, cell-based; conditions: 4T1, 48 h
[5] = system: HGC-27; assay: Cytotoxicity against human HGC27 cells assessed as reduction in cell viability after 48 hrs by MTT assay; type: functional, cell-based; conditions: HGC-27, 48 h
[6] = system: NCI-H460; assay: Cytotoxicity against human NCI-H460 cells assessed as reduction in cell viability after 48 hrs by MTT assay; type: functional, cell-based; conditions: NCI-H460, 48 h
[7] = Aqueous solubility in milli-Q water at 2 mg incubated for 5 mins followed by sonication for 1 mins measured after 24 hrs by UV-Visible spectroscopic method; type: physicochemical
[8] = system: PC-3; assay: Potency index, ratio of curcumin IC50 to compound IC50 for human PC3 cells; type: functional
[9] = system: DU-145; assay: Potency index, ratio of curcumin IC50 to compound IC50 for human DU145 cells; type: functional
[10] = system: NCI-H460; assay: Potency index, ratio of curcumin IC50 to compound IC50 for human NCI-H460 cells; type: functional

solubility [7]	Structure (SMILES)	IC50 [1] [µM]	IC50 [2] [µM]	IC50 [3] [µM]	IC50 [4] [µM]	IC50 [5] [µM]	IC50 [6] [µM]	Ratio IC50 [8]	Ratio IC50 [9]	Ratio IC50 [10]
–	COc1cc(OC)c(/C=C/C(=O)/C=C/c2cc3ccccc3nc2Cl)c(OC)c1	> 10	> 10	> 10	> 10	> 10	> 10	–	–	–
–	COc1cc(OC)c(/C=C/C(=O)/C=C/c2cc3ccccc3nc2Oc2ccc(Br)cc2)c(OC)c1	> 10	> 10	> 10	> 10	> 10	> 10	–	–	–
–	COc1ccc(/C=C/C(=O)/C=C/c2cc3ccccc3nc2Oc2ccccc2)c(OC)c1	> 10	> 10	> 10	> 10	> 10	> 10	–	–	–
Soluble	COc1cc(/C=C/C(=O)CC(=O)/C=C/c2ccc(O)c(OC)c2)ccc1O [CURCUMIN]	33.1	18.7	–	–	–	17.1	–	–	–
–	COc1cc(OC)c(/C=C/C(=O)/C=C/c2cc3ccccc3nc2Oc2cccc(Cl)c2)c(OC)c1	> 10	> 10	> 10	> 10	> 10	> 10	–	–	–
Soluble	COc1cc(OC)c(OC)cc1/C=C/C(=O)/C=C/c1cc2ccccc2nc1Oc1ccccc1	9.22	7.29	12.2	7.63	10.5	8.03	2.6	3.6	2.1
–	COc1ccc(/C=C/C(=O)/C=C/c2cc3ccccc3nc2Oc2ccc(Br)cc2)cc1	> 10	> 10	> 10	> 10	> 10	> 10	–	–	–
–	COc1ccc(/C=C/C(=O)/C=C/c2cc3ccccc3nc2Oc2ccc(Br)cc2)c(OC)c1	> 10	> 10	> 10	> 10	> 10	> 10	–	–	–
–	COc1ccc(/C=C/C(=O)/C=C/c2cc3ccccc3nc2Oc2ccccc2)cc1	> 10	> 10	> 10	> 10	> 10	> 10	–	–	–
–	COc1ccc(/C=C/C(=O)/C=C/c2cc3ccccc3nc2Cl)c(OC)c1	> 10	> 10	> 10	> 10	> 10	> 10	–	–	–
